From US7229991B2, “Substituted 5-aminomethyl-1H-pyrrole-2-carboxamides” (priority 2002, dated 2007)
Like-named read-outs stand apart in the source and are kept apart here.

How the values were obtained:
human μ opiate receptor = human μ opiate receptor (Homo sapiens, UniProt P35372); test: human μ opiate receptor binding assay with [3H]-naloxone, CHO-K1 membrane preparation; details: for inhibition at 1 µM: read-out: Human ORm Nal inhibition [%]
Description: b) Method for Determining Affinity for the Human μ Opiate Receptor
Receptor affinity for the human μ opiate receptor was determined in a homogeneous batch in microtitre plates. To this end, dilution series of the particular substituted 5-aminomethyl-1H-pyrrole-2-carboxylic acid amide of the general formula I to be tested were incubated at room temperature for 90 minutes in a total volume of 250 μl with a receptor membrane preparation (15-40 μg of protein per 250 μl of incubation batch) of CHO—K1 cells, which express the human μ opiate receptor (RB—HOM receptor membrane preparation from NEN, Zaventem, Belgium) in the presence of 1 nmol/l of the radioactive ligand [^3H]-naloxone (NET719, from NEN, Zaventem, Belgium) and of 1 mg of WGA-SPA beads (wheat germ agglutinin SPA beads from Amersham/Pharmacia, Freiburg, Germany). The incubation buffer used was 50 mmol/l tris-HCl supplemented with 0.05 wt. % of sodium azide and with 0.06 wt. % of bovine serum albumin. 25 μmol/l of naloxone were additionally added to determine nonspecific binding. Once the ninety minute incubation time had elapsed, the microtitre plates were centrifuged off for 20 minutes at 1000 g and the radioactivity measured in a β-Counter (Microbeta-Trilux, from PerkinElmer Wallac, Freiburg, Germany). The percentage displacement of the radioactive ligand from its binding to the human μ opiate receptor was determined at a concentration of the compounds to be tested of 1 μmol/l and stated as percentage inhibition of specific binding. On the basis of the percentage displacement by different concentrations of the compounds to be tested of the general formula I, IC50 inhibition concentrations which bring about 50% displacement of the radioactive ligand were calculated. Ki values for the test substances were obtained by conversion using the Cheng-Prusoff equation.

NA transporter = target: T1, NA transporter (Rattus norvegicus, UniProt Q63380); test: noradrenalin uptake inhibition in rat brain synaptosomes (hypothalamus); format: biochemical; design: concentration or dose not given beside the values; details: conc. 10 (unit not given), [3H]-NA
T1 construct: Synaptosomes from rat brain regions (the “P2” fraction was used) were freshly isolated; from tissue; host or cells: rat brain synaptosomes (P2 fraction), hypothalamus
T1 sequence (Q63380 1-617): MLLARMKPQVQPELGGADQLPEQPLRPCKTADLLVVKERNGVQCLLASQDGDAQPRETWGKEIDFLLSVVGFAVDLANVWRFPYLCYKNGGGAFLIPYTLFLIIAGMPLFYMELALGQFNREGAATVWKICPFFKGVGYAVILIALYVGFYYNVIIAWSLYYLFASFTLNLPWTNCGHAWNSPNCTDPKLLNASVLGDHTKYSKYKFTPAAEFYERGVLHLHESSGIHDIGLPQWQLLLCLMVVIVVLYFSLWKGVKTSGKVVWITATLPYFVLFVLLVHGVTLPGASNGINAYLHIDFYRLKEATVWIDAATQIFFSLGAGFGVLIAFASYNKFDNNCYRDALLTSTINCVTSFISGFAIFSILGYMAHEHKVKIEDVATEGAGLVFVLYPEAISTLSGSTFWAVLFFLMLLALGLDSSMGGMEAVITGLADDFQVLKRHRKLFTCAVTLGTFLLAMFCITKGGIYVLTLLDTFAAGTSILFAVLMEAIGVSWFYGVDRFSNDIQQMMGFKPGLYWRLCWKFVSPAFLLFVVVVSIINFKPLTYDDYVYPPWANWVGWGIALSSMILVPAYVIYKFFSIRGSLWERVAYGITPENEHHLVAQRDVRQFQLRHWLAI
Text: (§1) c) Method for Determining Noradrenalin and the 5-HT Uptake Inhibition:
(§2) Synaptosomes from rat brain regions (the “P2” fraction was used) were freshly isolated for in vitro studies, as described in the publication “The isolation of nerve endings from brain” by E. G. Gray and V. P. Whittaker, J. Anatomy 76, pages 79-88, 1962. The corresponding literature description is hereby introduced as a reference and is deemed to be part of the disclosure.
(§3) The tissue (hypothalamus for the determination of noradrenalin uptake inhibition and medulla and pons for the determination of 5-HT uptake inhibition) was homogenised in ice-cooled 0.32 M sucrose (100 mg of tissue/1 mL) in a glass homogeniser with teflon pestle using five complete up and down strokes at 840 revolutions/minute.
(§4) The homogenate was centrifuged at 4° C. for 10 minutes at 1000 g. After subsequent centrifugation at 17000 g for 55 minutes, the synaptosomes (P2 fraction) were obtained, which were resuspended in 0.32 M glucose (0.5 mL/100 mg of original weight).
(§5) The particular uptake was measured in a 96-well microtitre plate. The volume was 250 μl and the incubation proceeded at room temperature (approx. 20-25° C.) under an O2 atmosphere.
(§6) The incubation time was 7.5 minutes for [^3H]-NA and 5 minutes for [^3H]-5-HT. The 96 samples were then filtered through a Unifilter GF/B® microtitre plate (Packard) and washed with […] of incubated buffer using a “Brabdel MPXRI-96T Cell-Harvester”. The Unifilter GF/B plate was dried for 1 hour at 55° C. The plate was then sealed with a Back seal® (Packard) and 35 μl of scintillation fluid were added per well (Ultima gold®, Packard). After sealing with a top seal® (Packard) and establishment of equilibrium (around 5 hours), radioactivity was determined in a “Trilux 1450 Microbeta” (Wallac).
The following characteristics were determined for the NA transporter: NAuptake: Km=0.32±0.11 μM
(§7) The quantity of protein used in the above determination corresponded to the values known from the literature, as for example described in “Protein measurement with the folin phenol reagent”, Lowry et al., J. Biol. Chem., 193, 265-275, 1951. A detailed description of the method may also be found in the literature, for example in M.Ch. Frink, H.-H. Hennies, W. Engelberger, M. Haurand and B. Wilffert (1996) Arzneim.-Forsch./Drug Res. 46 (III), 11, 1029-1036. The corresponding literature descriptions are hereby introduced as a reference and are deemed to be part of the disclosure.

5-HT uptake = target: T2, 5-HT uptake (Rattus norvegicus, UniProt P31652); test: 5-HT uptake inhibition in rat brain synaptosomes (medulla and pons); format: biochemical; design: concentration or dose not given beside the values; details: conc. 10 (unit not given), [3H]-5-HT
T2 construct: Synaptosomes from rat brain regions (the “P2” fraction was used) were freshly isolated; from tissue; host or cells: rat brain synaptosomes (P2 fraction), medulla and pons
T2 sequence (P31652 whole entry): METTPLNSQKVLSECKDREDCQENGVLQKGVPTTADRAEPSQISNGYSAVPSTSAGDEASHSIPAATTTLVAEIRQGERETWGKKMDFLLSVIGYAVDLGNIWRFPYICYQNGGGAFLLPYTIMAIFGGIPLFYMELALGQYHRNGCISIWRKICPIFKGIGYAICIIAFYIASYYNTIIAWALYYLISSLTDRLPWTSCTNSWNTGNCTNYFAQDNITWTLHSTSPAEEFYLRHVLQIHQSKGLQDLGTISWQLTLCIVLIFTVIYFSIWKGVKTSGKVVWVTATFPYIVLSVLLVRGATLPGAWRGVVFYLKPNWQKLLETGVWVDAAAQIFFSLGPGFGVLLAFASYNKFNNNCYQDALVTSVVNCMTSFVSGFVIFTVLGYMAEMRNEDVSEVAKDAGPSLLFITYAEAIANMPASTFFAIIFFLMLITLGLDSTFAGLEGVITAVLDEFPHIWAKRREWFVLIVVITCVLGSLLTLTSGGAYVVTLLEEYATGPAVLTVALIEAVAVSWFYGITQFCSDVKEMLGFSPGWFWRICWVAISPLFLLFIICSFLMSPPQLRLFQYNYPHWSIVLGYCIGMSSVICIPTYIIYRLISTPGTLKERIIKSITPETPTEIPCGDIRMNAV
Text: as §1, §2, §3, §4, §5, §6, §7

[1] = [3H]-naloxone, from IC50 by the Cheng-Prusoff equation, read-out: Human ORm Nal Ki

human μ opiate receptor, sequence (P35372 whole entry): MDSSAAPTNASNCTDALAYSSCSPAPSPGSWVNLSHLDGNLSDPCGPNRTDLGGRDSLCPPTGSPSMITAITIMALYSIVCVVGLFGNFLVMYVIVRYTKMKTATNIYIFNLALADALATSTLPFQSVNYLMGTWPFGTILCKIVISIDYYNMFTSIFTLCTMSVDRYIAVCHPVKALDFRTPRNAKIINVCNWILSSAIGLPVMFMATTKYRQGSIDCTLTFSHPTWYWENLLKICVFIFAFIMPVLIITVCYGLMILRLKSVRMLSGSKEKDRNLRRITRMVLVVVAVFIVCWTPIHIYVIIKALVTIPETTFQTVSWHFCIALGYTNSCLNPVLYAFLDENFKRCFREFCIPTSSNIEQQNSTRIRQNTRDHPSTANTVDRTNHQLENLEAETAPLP

CN(C)C(c1ccc(F)cc1)c1ccc(C(=O)NC2CCCCC2)n1C.Cl (centres unmarked) [Example 1, 5-[Dimethylamino-(4-fluoro-phenyl)-methyl]-1-methyl-1H-pyrrole-2-carboxylic acid cyclohexylamide hydrochloride]
Ki (human μ opiate receptor): 0.16 µM
inhibition at 1 µM (human μ opiate receptor): 62%
Noradrenalin uptake inhibition [%] conc. 10 (NA transporter): 80%
5-HT uptake inhibition [%] conc. 10 (5-HT uptake): 57%

CCCCNC(=O)c1ccc(C(c2ccc(F)cc2)N(C)C)n1C.Cl (centres unmarked) [Example 2, 5-[Dimethylamino-(4-fluoro-phenyl)-methyl]-1-methyl-1H-pyrrole-2-carboxylic acid butylamide hydrochloride]
Ki (human μ opiate receptor; [1]): 0.36 µM
inhibition at 1 µM (human μ opiate receptor): 49%
Noradrenalin uptake inhibition [%] conc. 10 (NA transporter): 72%
5-HT uptake inhibition [%] conc. 10 (5-HT uptake): 52%

CN(C)C(c1ccc(F)cc1)c1ccc(C(=O)N2CCCC2)n1C.Cl (centres unmarked) [Example 3, {5-[Dimethylamino-(4-fluoro-phenyl)-methyl]-1-methyl-1H-pyrrol-2-yl}-pyrrolidin-1-yl-methanone hydrochloride]
Noradrenalin uptake inhibition [%] conc. 10 (NA transporter): 38%

CN(C)C(c1ccc(Br)cc1)c1ccc(C(=O)NC2CCCCC2)n1C.Cl (centres unmarked) [Example 4, 5-[Dimethylamino-(4-bromo-phenyl)-methyl]-1-methyl-1H-pyrrole-2-carboxylic acid cyclohexylamide hydrochloride]
Ki (human μ opiate receptor; [1]): 0.79 µM
inhibition at 1 µM (human μ opiate receptor): 80%
Noradrenalin uptake inhibition [%] conc. 10 (NA transporter): 93%
5-HT uptake inhibition [%] conc. 10 (5-HT uptake): 72%

CCCCNC(=O)c1ccc(C(c2ccc(Br)cc2)N(C)C)n1C.Cl (centres unmarked) [Example 5, 5-[Dimethylamino-(4-bromo-phenyl)-methyl]-1-methyl-1H-pyrrole-2-carboxylic acid butylamide hydrochloride]
inhibition at 1 µM (human μ opiate receptor): 62%
Noradrenalin uptake inhibition [%] conc. 10 (NA transporter): 86%
5-HT uptake inhibition [%] conc. 10 (5-HT uptake): 57%

CN(C)C(c1ccc(Br)cc1)c1ccc(C(=O)N2CCCC2)n1C.Cl (centres unmarked) [Example 6, {5-[(4-Bromo-phenyl)-dimethylamino-methyl]-1-methyl-1H-pyrrol-2-yl)-pyrrolidin-1-yl-methanone hydrochloride]
Noradrenalin uptake inhibition [%] conc. 10 (NA transporter): 83%
5-HT uptake inhibition [%] conc. 10 (5-HT uptake): 51%

CN(C)C(c1ccc(Br)cc1)c1ccc(C(=O)NCCc2ccccc2)n1C.Cl (centres unmarked) [Example 7, 5-[(4-Bromo-phenyl)-dimethylamino-methyl]-1-methyl-1H-pyrrole-2-carboxylic acid phenethylamide hydrochloride]
Ki (human μ opiate receptor): 1 µM
inhibition at 1 µM (human μ opiate receptor): 65%
Noradrenalin uptake inhibition [%] conc. 10 (NA transporter): 95%
5-HT uptake inhibition [%] conc. 10 (5-HT uptake): 93%

CN(C)C(c1ccc(Br)cc1)c1ccc(C(=O)N2CCOCC2)n1C.Cl (centres unmarked) [Example 8, {5-[(4-Bromo-phenyl)-dimethylamino-methyl]-1-methyl-1H-pyrrol-2-yl}-morpholin-4-yl-methanone hydrochloride]
Noradrenalin uptake inhibition [%] conc. 10 (NA transporter): 43%
5-HT uptake inhibition [%] conc. 10 (5-HT uptake): 79%

CN(C)C(c1ccccc1)c1ccc(C(=O)NC2CCCCC2)n1C.Cl (centres unmarked) [Example 9, 5-(Dimethylamino-phenyl-methyl)-1-methyl-1H-pyrrole-2-carboxylic acid cyclohexylamide hydrochloride]
inhibition at 1 µM (human μ opiate receptor): 76%
Noradrenalin uptake inhibition [%] conc. 10 (NA transporter): 70%

CCCCNC(=O)c1ccc(C(c2ccccc2)N(C)C)n1C.Cl (centres unmarked) [Example 10, 5-(Dimethylamino-phenyl-methyl)-1-methyl-1H-pyrrole-2-carboxylic acid butylamide hydrochloride]
Noradrenalin uptake inhibition [%] conc. 10 (NA transporter): 52%

CN(C)C(c1ccccc1)c1ccc(C(=O)N2CCCC2)n1C.Cl (centres unmarked) [Example 11, [5-(Dimethylamino-phenyl-methyl)-1-methyl-1H-pyrrol-2-yl]-pyrrolidin-1-yl-methanone hydrochloride]
inhibition at 1 µM (human μ opiate receptor): 33%
5-HT uptake inhibition [%] conc. 10 (5-HT uptake): 54%
